From patent publication US11912701B2, “Protein kinase inhibitors for promoting liver regeneration or reducing or preventing hepatocyte death” (HEPAREGENIX GMBH, priority 2018, dated 2024)

Key:
[1] = biological target: T1, BRaf (Homo sapiens, UniProt P15056); test: 33PanQinase enzyme assay, BRaf; type: biochemical; details: ratio IC50(BRaf)/IC50(MKK4)
T1 construct: purchased ProQinase GmbH, Freiburg, Germany (33PanQinase Assay Service)
Procedure, shortened: (§1)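 Radiometric 33PanQinase format: kinase with substrate, ATP and compound (added in 10% DMSO stock) incubated 60 min at 30° C, stopped with 2% H3PO4, ^33Pi incorporation counted by scintillation. Single-concentration data given as % residual activity; IC50 by least-squares fit, with selectivity as IC50(off-target)/IC50(MKK4).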

[2] = biological target: T2, MKK7 (Homo sapiens, UniProt O14733); test: 33PanQinase enzyme assay, MKK7; type: biochemical; parameters: purchased ProQinase GmbH, Freiburg, Germany (33PanQinase Assay Service); details: ratio IC50(MKK7)/IC50(MKK4)
T2 sequence (O14733 1-419): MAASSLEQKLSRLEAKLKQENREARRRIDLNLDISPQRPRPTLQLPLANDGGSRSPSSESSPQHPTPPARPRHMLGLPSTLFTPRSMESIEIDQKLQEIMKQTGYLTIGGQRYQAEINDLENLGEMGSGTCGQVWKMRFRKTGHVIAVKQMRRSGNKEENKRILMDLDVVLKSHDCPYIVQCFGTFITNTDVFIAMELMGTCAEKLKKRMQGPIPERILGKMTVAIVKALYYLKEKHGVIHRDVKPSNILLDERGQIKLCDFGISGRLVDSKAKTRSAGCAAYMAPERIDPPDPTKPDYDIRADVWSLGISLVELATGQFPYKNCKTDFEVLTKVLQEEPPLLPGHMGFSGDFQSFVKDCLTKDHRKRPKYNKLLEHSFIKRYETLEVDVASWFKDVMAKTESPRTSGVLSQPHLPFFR
Procedure, shortened: as §1

[3] = biological target: T1, BRaf; test: KINOMEscan competition binding assay, BRaf; details: ratio PoC (off-target)/PoC (MKK4)
Procedure, shortened: (§2)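 DNA-tagged kinases expressed in HEK-293 cells compete between immobilized ligand on blocked beads and test compound at 100 nM; kinase retained on beads quantified by qPCR of the tag.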

[4] = biological target: T3, MKK4 (Homo sapiens, UniProt P45985); test: 33PanQinase enzyme assay, MKK4; type: biochemical; details: assay 'IC50'; read-out: Potency MKK4 (IC50)
T3 construct: purchased ProQinase GmbH, Freiburg, Germany (33PanQinase Assay Service)
T3 sequence (P45985 1-399): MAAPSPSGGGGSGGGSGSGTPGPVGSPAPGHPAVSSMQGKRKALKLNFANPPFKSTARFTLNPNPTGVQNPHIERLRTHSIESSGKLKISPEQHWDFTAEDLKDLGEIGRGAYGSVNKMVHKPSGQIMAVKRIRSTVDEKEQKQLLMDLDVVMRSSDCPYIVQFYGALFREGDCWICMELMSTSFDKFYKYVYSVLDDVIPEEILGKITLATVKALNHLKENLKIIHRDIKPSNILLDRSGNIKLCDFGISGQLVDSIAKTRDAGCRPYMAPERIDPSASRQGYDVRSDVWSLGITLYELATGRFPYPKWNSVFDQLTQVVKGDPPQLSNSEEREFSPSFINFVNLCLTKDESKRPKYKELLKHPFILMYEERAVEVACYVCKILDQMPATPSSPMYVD
Procedure, shortened: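 Radiometric 33PanQinase assay: kinase, substrate, ATP and compound in standard buffer, 60 min at 30 °C; 33Pi incorporation read by scintillation counting.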

[5] = biological target: T4, MKK4 (Homo sapiens, UniProt P45985); test: KINOMEscan competition binding assay, MKK4; details: residual percent of control binding (PoC) at 100 nM
T4 construct: S84/D399; host or cells: HEK-293
T4 sequence (P45985 84-399): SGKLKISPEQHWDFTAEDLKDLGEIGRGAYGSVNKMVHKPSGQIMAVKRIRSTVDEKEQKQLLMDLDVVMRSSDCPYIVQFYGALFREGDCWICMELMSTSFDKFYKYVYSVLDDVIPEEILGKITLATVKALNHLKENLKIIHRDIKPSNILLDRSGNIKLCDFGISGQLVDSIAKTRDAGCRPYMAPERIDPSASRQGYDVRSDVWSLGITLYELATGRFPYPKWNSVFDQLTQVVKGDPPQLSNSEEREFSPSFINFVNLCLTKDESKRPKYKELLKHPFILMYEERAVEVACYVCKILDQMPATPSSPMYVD
Procedure, shortened: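 KINOMEscan competition of compound versus immobilized ligand for DNA-tagged MKK4 expressed in HEK-293 cells. Bound kinase was quantified by qPCR after elution.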

[6] = biological target: T5, JNK1 (Homo sapiens, UniProt P45983); test: 33PanQinase enzyme assay, JNK1; type: biochemical; parameters: purchased ProQinase GmbH, Freiburg, Germany (33PanQinase Assay Service); details: ratio IC50(JNK1)/IC50(MKK4)
Procedure, shortened: as §1
Target sequence in this assay (P45983 whole entry): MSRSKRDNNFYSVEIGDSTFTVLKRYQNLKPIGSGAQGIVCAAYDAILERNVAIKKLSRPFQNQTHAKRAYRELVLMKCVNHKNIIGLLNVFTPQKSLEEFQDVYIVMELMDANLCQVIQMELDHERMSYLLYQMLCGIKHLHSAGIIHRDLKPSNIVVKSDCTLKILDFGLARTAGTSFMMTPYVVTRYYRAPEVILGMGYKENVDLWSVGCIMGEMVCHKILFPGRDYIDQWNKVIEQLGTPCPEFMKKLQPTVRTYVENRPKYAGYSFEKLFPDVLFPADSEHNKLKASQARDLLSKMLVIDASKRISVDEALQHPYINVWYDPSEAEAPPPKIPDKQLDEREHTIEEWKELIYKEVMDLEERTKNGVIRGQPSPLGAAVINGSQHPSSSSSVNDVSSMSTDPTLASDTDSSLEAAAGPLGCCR

[7] = biological target: T5, JNK1; test: KINOMEscan competition binding assay, JNK1; parameters: M1/Q384; host or cells: HEK-293; details: ratio PoC (off-target)/PoC (MKK4)
Procedure, shortened: as §2
Target sequence in this assay (P45983 1-384 isoform P45983-2): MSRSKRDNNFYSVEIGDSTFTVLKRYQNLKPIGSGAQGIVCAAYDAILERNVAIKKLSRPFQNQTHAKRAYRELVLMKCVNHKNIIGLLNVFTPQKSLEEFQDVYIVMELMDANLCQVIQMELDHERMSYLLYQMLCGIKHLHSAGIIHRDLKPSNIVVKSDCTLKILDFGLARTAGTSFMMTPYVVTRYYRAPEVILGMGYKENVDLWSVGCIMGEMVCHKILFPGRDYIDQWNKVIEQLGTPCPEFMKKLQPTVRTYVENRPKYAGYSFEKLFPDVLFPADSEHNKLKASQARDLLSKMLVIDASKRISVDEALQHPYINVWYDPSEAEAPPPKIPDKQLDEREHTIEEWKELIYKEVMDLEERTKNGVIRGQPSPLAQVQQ

[8] = biological target: T2, MKK7; test: KINOMEscan competition binding assay, MKK7; parameters: M1/R419; host or cells: HEK-293; details: ratio PoC (off-target)/PoC (MKK4)
Procedure, shortened: as §2

T1 sequence (P15056 whole entry, species assumed): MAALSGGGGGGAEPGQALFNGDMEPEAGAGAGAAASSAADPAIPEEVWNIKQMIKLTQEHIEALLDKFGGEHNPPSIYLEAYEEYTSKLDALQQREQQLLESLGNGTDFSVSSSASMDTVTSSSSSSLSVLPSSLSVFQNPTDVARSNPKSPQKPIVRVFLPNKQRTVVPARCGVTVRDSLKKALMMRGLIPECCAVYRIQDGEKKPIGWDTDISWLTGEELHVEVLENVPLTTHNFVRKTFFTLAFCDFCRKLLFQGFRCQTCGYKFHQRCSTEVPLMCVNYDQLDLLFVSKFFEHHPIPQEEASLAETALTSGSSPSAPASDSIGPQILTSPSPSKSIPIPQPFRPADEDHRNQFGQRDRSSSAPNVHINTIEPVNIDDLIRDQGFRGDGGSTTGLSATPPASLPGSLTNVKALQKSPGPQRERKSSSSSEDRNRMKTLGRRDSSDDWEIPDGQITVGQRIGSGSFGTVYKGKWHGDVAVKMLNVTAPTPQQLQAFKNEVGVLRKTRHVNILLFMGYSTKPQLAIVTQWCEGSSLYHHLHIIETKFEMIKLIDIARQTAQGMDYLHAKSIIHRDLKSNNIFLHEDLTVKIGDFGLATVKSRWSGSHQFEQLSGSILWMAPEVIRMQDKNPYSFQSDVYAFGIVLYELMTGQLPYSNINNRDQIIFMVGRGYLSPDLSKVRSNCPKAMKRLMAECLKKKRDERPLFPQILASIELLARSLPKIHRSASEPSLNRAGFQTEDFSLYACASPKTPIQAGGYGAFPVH

SMILES	Selectivity Braf, IC50(off-target)/IC50(MKK4) [1]	Selectivity IVIKK7, IC50(off-target)/IC50(MKK4) [2]	selectivity based on % Ctrl @100 nM vs. Braf [3]	IC50 [4] [nM]	MKK4 [% Ctrl @ 100 nM [5]	Selectivity JNK1, IC50(off-target)/IC50(MKK4) [6]	selectivity based on % Ctrl @100 nM vs. JNK1 [7]	selectivity based on % Ctrl @100 nM vs. MKK7 [8]
COc1ccc(-c2cnc3[nH]cc(C(=O)c4cccc(NS(=O)(=O)Cc5ccccc5)c4F)c3c2)c(Cl)c1 [Example 125, N-(3-(5-(2-chloro-4-methoxyphenyl)-1H-pyrrolo[2,3-b]pyridine-3-carbonyl)-2-fluorophenyl)-1-phenylmethanesulfonamide]	+++ (IC50(off-target)/IC50(MKK4) > 100)	+++ (IC50(off-target)/IC50(MKK4) > 100)	++ (100 ≥ ratio > 10)	100 to 1000	++ (1 ≤ PoC < 3)	+ (10 ≥ IC50(off-target)/IC50(MKK4) > 3)	++ (100 ≥ ratio > 10)	++ (100 ≥ ratio > 10)
Cc1cc(F)ccc1-c1cnc2[nH]cc(C(=O)c3cccc(NS(=O)(=O)Cc4ccccc4)c3F)c2c1 [Example 126, N-(2-fluoro-3-(5-(4-fluoro-2-methylphenyl)-1H-pyrrolo[2,3-b]pyridine-3-carbonyl)phenyl)-1-phenylmethanesulfonamide]	+++ (IC50(off-target)/IC50(MKK4) > 100)	+++ (IC50(off-target)/IC50(MKK4) > 100)	++ (100 ≥ ratio > 10)	100 to 1000	+ (3 ≤ PoC < 30)	+ (10 ≥ IC50(off-target)/IC50(MKK4) > 3)	++ (100 ≥ ratio > 10)	++ (100 ≥ ratio > 10)
O=C(c1cccc(NS(=O)(=O)Cc2ccccc2)c1F)c1c[nH]c2ncc(-c3cc4c(cc3Cl)OCO4)cc12 [Example 128, N-(3-(5-(6-chlorobenzo[d][1,3]dioxol-5-yl)-1H-pyrrolo[2,3-b]pyridine-3-carbonyl)-2-fluorophenyl)-1-phenylmethanesulfonamide]	+++ (IC50(off-target)/IC50(MKK4) > 100)	+++ (IC50(off-target)/IC50(MKK4) > 100)	++ (100 ≥ ratio > 10)	100 to 1000	++ (1 ≤ PoC < 3)	+ (10 ≥ IC50(off-target)/IC50(MKK4) > 3)	++ (100 ≥ ratio > 10)	++ (100 ≥ ratio > 10)
O=C(c1cccc(NS(=O)(=O)Cc2ccccc2)c1F)c1c[nH]c2ncc(-c3ccncc3)cc12 [Example 129, N-(2-fluoro-3-(5-(pyridin-4-yl)-1H-pyrrolo[2,3-b]pyridine-3-carbonyl)phenyl)-1-phenylmethanesulfonamide]	++ (100 ≥ IC50(off-target)/IC50(MKK4) > 10)	+++ (IC50(off-target)/IC50(MKK4) > 100)	+++ (Ratio > 100)	100 to 1000	+++ (PoC < 1)	+ (10 ≥ IC50(off-target)/IC50(MKK4) > 3)	+++ (Ratio > 100)	+++ (Ratio > 100)
O=C(c1ccc(F)c(NS(=O)(=O)CCC(F)(F)F)c1F)c1c[nH]c2ncc(-c3ccc(C(F)(F)F)nc3)cc12 [Example 148, N-(2,6-difluoro-3-(5-(6-(trifluoromethyl)pyridin-3-yl)-1H-pyrrolo[2,3-b]pyridine-3-carbonyl)phenyl)-3,3,3-trifluoropropane-1-sulfonamide]	++ (100 ≥ IC50(off-target)/IC50(MKK4) > 10)	+++ (IC50(off-target)/IC50(MKK4) > 100)	+++ (Ratio > 100)	< 100	+++ (PoC < 1)	+++ (IC50(off-target)/IC50(MKK4) > 100)	+++ (Ratio > 100)	+++ (Ratio > 100)
O=C(c1ccc(F)c(NS(=O)(=O)CCC(F)(F)F)c1F)c1c[nH]c2ncc(-c3cccnc3)cc12 [Example 156, N-(2,6-difluoro-3-(5-(pyridin-3-yl)-1H-pyrrolo[2,3-b]pyridine-3-carbonyl)phenyl)-3,3,3-trifluoropropane-1-sulfonamide]	++ (100 ≥ IC50(off-target)/IC50(MKK4) > 10)	+++ (IC50(off-target)/IC50(MKK4) > 100)	+++ (Ratio > 100)	< 100	+++ (PoC < 1)	+++ (IC50(off-target)/IC50(MKK4) > 100)	+++ (Ratio > 100)	+++ (Ratio > 100)
Cc1cc(F)ncc1-c1cnc2[nH]cc(C(=O)c3ccc(F)c(NS(=O)(=O)CCC(F)(F)F)c3F)c2c1 [Example 157, N-(2,6-difluoro-3-(5-(6-fluoro-4-methylpyridin-3-yl)-1H-pyrrolo[2,3-b]pyridine-3-carbonyl)phenyl)-3,3,3-trifluoropropane-1-sulfonamide]	+++ (IC50(off-target)/IC50(MKK4) > 100)	+++ (IC50(off-target)/IC50(MKK4) > 100)	+++ (Ratio > 100)	< 100	+++ (PoC < 1)	+++ (IC50(off-target)/IC50(MKK4) > 100)	+++ (Ratio > 100)	+++ (Ratio > 100)
COc1ccc(-c2cnc3[nH]cc(C(=O)c4ccc(F)c(NS(=O)(=O)CCC(F)(F)F)c4F)c3c2)cn1 [Example 158, N-(2,6-difluoro-3-(5-(6-methoxypyridin-3-yl)-1H-pyrrolo[2,3-b]pyridine-3-carbonyl)phenyl)-3,3,3-trifluoropropane-1-sulfonamide]	++ (100 ≥ IC50(off-target)/IC50(MKK4) > 10)	+++ (IC50(off-target)/IC50(MKK4) > 100)	+++ (Ratio > 100)	< 100	+++ (PoC < 1)	+++ (IC50(off-target)/IC50(MKK4) > 100)	+++ (Ratio > 100)	+++ (Ratio > 100)
